Results reported in article PMC6934184, “Selective DNA-PKcs inhibition extends the therapeutic index of localized radiotherapy and chemotherapy” (The Journal of Clinical Investigation, 2019).

Biological target: T1, RIPK3 (Homo sapiens, UniProt Q9Y572)
T1 construct: purchased Thermo Fisher Scientific (Life Technologies) SelectScreen
Test: SelectScreen LanthaScreen
Type: binding
Details: read-out: % displacement
Method in brief: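 Percent values come from Thermo SelectScreen profiling of NU5455, combining activity and binding assays. CSF1R was run in Z'LYTE format at Km app ATP, and CAMK1 in Adapta format with ATP listed at 10.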

T1 sequence (Q9Y572 whole entry): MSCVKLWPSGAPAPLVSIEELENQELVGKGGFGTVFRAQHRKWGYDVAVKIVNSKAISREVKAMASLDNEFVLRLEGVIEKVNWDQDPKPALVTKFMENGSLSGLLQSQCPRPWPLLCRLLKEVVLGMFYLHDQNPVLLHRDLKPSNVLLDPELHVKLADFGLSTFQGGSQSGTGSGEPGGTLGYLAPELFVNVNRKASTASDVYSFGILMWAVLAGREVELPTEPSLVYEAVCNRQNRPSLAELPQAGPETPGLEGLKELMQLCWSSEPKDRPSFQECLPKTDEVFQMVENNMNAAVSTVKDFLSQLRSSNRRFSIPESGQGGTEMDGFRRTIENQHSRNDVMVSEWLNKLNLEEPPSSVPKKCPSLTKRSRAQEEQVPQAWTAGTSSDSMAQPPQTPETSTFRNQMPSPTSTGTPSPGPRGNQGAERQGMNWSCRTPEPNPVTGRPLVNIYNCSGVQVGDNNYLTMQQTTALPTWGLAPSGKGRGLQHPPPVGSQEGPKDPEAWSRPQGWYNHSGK

Compound `CN(C(=O)CN1CCOCC1)c1ccc2sc3c(-c4cccc5c(=O)cc(N6CC7CCC(C6)O7)oc45)cccc3c2c1` [NU5455] has an inhibition at 1 µM of -2.3%.
